From PubChem BioAssay (NCI) come the findings set out here.

Several values for one entry are separate records, joined by “and”; a condition that tells them apart may be missing. Identical values can stand only once.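 Following 48 hours of exposure in 96-well plates, responses at five concentrations were used to interpolate endpoints linearly. GI50: concentration for 50% inhibition of growth. TGI marks complete inhibition of growth.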

Common to all, as to test: NCI anticancer screen, dose series, 48 h
In test [1] the test system is PC-3 prostate.
Test [2] has as its system SR leukemia.
Test [3] has as its system SF-539 CNS.
The subject of test [4] is HCT-15 colon.
The subject of test [5] is UO-31 renal.
For test [6], the system named is SK-MEL-28 melanoma.
Test [7] relates to 786-0 renal.
In test [8] the test system is SF-268 CNS.
Test [9] relates to HS 578T breast.
The subject of test [10] is CCRF-CEM leukemia.

Consider `O=[N+]([O-])c1ccc(NC(=S)N/N=C(\c2ccccc2)c2ccccn2)cc1`, for which the GI50 in test [1] is 1.16 µM; in test [2], 0.0286 µM; in test [3], 1.41 µM; in test [6] it was 1.38 µM; in test [7] it was 1.01 µM; in [10], 0.0073 µM. Further, the TGI was 2.91 µM and 2.54 µM in [1]; 2.98 µM and > 27.4 µM in test [2]; 2.9 µM and 3.33 µM in test [3]; 2.71 µM in [4]; 2.79 µM in [5]; 2.9 µM and 2.69 µM in test [6]. The TGI in [7] was 2.17 µM and 2.49 µM; in test [8] it was 1.9 µM and 1.84 µM; in [9], 9.39 µM; in test [10], 2.31 µM and 10.2 µM.
In the case of `C=C1C[C@@H]2[C@H](CC[C@]3(C)C(=O)CC[C@@H]23)[C@@]2(C)C=CC(=O)C=C12`, the GI50 was 66.9 µM in test [1]; over 54.4 µM in test [2]; 25.2 µM in [3]; 10 µM in [4]; 22 µM in test [5]; 42.5 µM in test [6]. Also, the GI50 is 36.9 µM in test [7], 57.1 µM in test [8], 25.1 µM in [9] and 24.5 µM in test [10]. The TGI is over 100 µM in test [1]; over 79.9 µM in test [2]; 74.4 µM in [3]; 34.3 µM in test [4]; over 56.5 µM in [5]; over 100 µM in test [6]. For the same molecule, the TGI in test [7] is over 100 µM; in [8], over 100 µM; in [9], over 77.2 µM; in test [10], over 74.9 µM.
On to `O=C1C(=Cc2ccccc2[N+](=O)[O-])N=C(c2ccccc2)N1n1c(-c2ccccc2)nc2ccccc2c1=O`, for which the TGI in test [1] was 80.6 µM; in [2], over 100 µM; in test [3] it was over 100 µM; in [4] it was over 100 µM; in [5], over 100 µM; in test [6] it was over 100 µM. Also, the TGI in [7] was over 100 µM; in [8] it was over 100 µM; in [9] it was 86 µM; in test [10], 78 µM.
For the molecule `CCN(CC)CCOc1nc2cc(OC)c(OC)cc2c2c1-c1ccc(OC)cc1C2=O`, the GI50 in test [1] is 12.3 µM; in test [2], 0.583 µM; in test [3] it was 8.62 µM; in [4], 1.79 µM; in [5] it was 1.77 µM; in [6], 21.5 µM. Besides, the GI50 was 15.7 µM in test [7], 4.93 µM in [8], 20.4 µM in test [9] and 0.54 µM in [10]. Also, the TGI in [1] came out at 26.8 µM; in test [2] it was 3.4 µM; in test [3] it was 23.6 µM; in test [4], 3.78 µM; in [5], 14.2 µM; in [6] it was 36.4 µM. Moreover, the TGI in test [7] is 30.3 µM; in test [8], 21.9 µM; in test [9], 44.9 µM; in test [10], 12.3 µM.
Regarding `O=S1(=O)CC(Br)C(Br)C1` (stereo unspecified), the GI50 in test [1] was 10.7 µM; in [2], 3.58 µM; in test [3] it was 13.6 µM; in test [4], 2.64 µM; in test [5] it was 3.77 µM; in test [6], 3.64 µM. Moreover, the GI50 was 10.5 µM in [7], 21.5 µM in test [8], 5.5 µM in test [9] and 1.6 µM in test [10]. The TGI in test [1] worked out at 26.3 µM; in [2], 21.6 µM; in test [3], 54.4 µM; in [4] it was 7.24 µM; in test [5], 14.7 µM; in [6], 13.7 µM. Besides, the TGI in test [7] is 25.5 µM; in test [8] it was over 100 µM; in test [9], 76.3 µM; in [10], 8.95 µM.
On to `Cc1nn2c(/C=C3\C(=O)Nc4ccccc43)c(C)nc2s1`, for which the GI50 is 29.5 µM in test [1]; 4.86 µM in [2]; 49.8 µM in [3]; 17.1 µM in test [4]; 70 µM in [5]; over 100 µM in test [6]. The GI50 in [7] is 40.4 µM; in [8] it was 54.6 µM; in test [9] it was 78 µM; in test [10] it was 30.1 µM. Further, the TGI in test [1], in [2], in test [3], in test [4], in test [5] and in test [6] was over 100 µM in each case. In addition, the TGI in test [7], in [8], in test [9] and in test [10] was over 100 µM throughout.
Regarding `COc1cc(CNC(=O)CCSc2nc3ccccc3c(=O)n2Cc2cc(OC)c(OC)c(OC)c2)cc(OC)c1OC`, the GI50 in [1] is 10.8 µM; in test [2] it was 3.01 µM; in [3], 2.86 µM; in test [4], 2.47 µM; in test [5], 5.9 µM; in test [6], 6.69 µM. The GI50 was 5.1 µM in test [7], 7.13 µM in [8], 5.24 µM in test [9] and 4.91 µM in [10]. Also, the TGI in test [1] is over 100 µM; in test [2], over 100 µM; in test [3], 10.7 µM; in test [4] it was over 100 µM; in test [5], over 100 µM; in test [6], over 100 µM. Also, the TGI was 29 µM in [7], over 100 µM in test [8], over 100 µM in test [9] and over 100 µM in test [10].
